US20120046246A1, “METHODS FOR TREATING OSTEOCLAST-RELATED DISEASE, COMPOUNDS AND COMPOSITIONS THEREOF” (University of Florida Research Foundation, priority 2008, published 2012)

These molecules were tested on mature osteoclasts on bone slices (assay: ruffled membrane formation / V-ATPase trafficking in mature osteoclasts on bone slices (anti-E subunit antibody)). Conditions: concentration not given.
Type: cell-based
Description: FIG. 7 depicts that enoxacin (10 μM) blocks ruffled membrane formation. Mature osteoclasts on bone slices were treated with enoxacin or vehicle control for 3 days, then fixed and labeled with an anti-E subunit antibody. […] Arrows point to representative osteoclasts; The present inventors also tested the effects of enoxacin on osteoclasts that were already mature and loaded onto bone slices. In this experiment, mature osteoclasts on bone slices were treated with enoxacin or vehicle control for 3 days, then fixed and labeled with an anti-E subunit antibody. Control osteoclasts produced many ruffled membranes.
In the case of `O=C(C[N+]12CN3CN(CN(C3)C1)C2)c1ccc(Cl)cc1.[I-]` [Binhib 2, 3,5,7-triaza-1-azoniatricyclo[3.3.1.13,7]decane, 1-[2-(4-chlorophenyl)-2-oxoethyl]-iodide], the ruffled membrane formation is reported as “blocks”.

The molecules below were run on osteoclast formation in calcitriol-stimulated mouse marrow cultures (assay: osteoclastogenesis stimulated by calcitriol in mouse marrow cultures). Conditions: concentration not given.
Type: cell-based
Description: Enoxacin and Binhib 2 were then tested for their effects on osteoclastogenesis stimulated by calcitriol in mouse marrow cultures. The mixed cultures represent a model for the complex interactions that regulate bone resorption in vivo. […] Osteoclast and osteoblast-containing mouse bone marrow cultures are obtained as above described. 4-6-week-old Swiss-Webster mice (Harlan, Indianapolis, Ind.) are sacrificed by cervical dislocation. Femurs and tibias are dissected free of adherent tissue; the marrow is expelled by cutting both bone ends and flushing the marrow cavity with MEM D10 using a 25-gauge needle. The marrow cells are washed twice and plated in 6 well plates at a concentration of 1×10^6 nucleated cells/cm^2 in MEM D1 0 containing 10 nM calcitriol. Cultures are fed on the third and fifth day of culture by replacing half of the medium with fresh medium containing calcitriol. Cultures are treated with enoxacin at 10 μM or vehicle control on Day 1, and when the media is refreshed.
In the case of `O=C(C[N+]12CN3CN(CN(C3)C1)C2)c1ccc(Cl)cc1.[I-]` [Binhib 2, 3,5,7-triaza-1-azoniatricyclo[3.3.1.13,7]decane, 1-[2-(4-chlorophenyl)-2-oxoethyl]-iodide], the osteoclast formation is reported as “without affecting”.

The molecules below were run against T1, interaction between recombinantly-expressed B2 subunit and pure rabbit muscle F-actin (Homo sapiens, UniProt P21281) (assay: pelleting assay of B subunit binding to F-actin). Conditions: not given.
T1 construct: made in house
T1 sequence (P21281 whole entry): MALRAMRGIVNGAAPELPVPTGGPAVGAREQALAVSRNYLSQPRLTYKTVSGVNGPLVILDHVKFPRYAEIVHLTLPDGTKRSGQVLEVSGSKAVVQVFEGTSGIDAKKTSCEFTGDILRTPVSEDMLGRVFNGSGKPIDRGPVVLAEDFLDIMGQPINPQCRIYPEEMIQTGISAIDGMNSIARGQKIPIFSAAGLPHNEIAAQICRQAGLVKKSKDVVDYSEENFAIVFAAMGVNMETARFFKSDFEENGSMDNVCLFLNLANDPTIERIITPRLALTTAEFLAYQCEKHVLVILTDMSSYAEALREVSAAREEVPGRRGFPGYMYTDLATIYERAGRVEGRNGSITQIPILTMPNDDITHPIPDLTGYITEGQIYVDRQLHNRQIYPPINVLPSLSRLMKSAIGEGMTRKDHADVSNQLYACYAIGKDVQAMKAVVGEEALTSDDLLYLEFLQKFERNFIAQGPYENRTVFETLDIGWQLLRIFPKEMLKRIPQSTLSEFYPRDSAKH
Description: Twenty-one small molecules are tested for their ability to block interaction between recombinantly-expressed B2 subunit and pure rabbit muscle F-actin.
Recombinant B subunit (1 μM) plus/minus F-actin (2 μM)) plus/minus 100 uM inhibitor compounds were incubated for 10 minutes in 20 mM Tris/HCl (pH 7.5), 100 mM NaCl, 1 mM MgCl2, 0.2 mM CaCl2, 0.5 mM ATP, 0.2 mM DTT, then subjected to ultracentrifugation at 180,000×g for 45 min. Supernatants and pellets were collected in SDS-PAGE sample buffer, separated by SDS-PAGE, stained with Coomassie Blue, and densitometry was performed using a Flurchem 8000 (Alpha Innotech, San Leandro Calif.).
The percent inhibition was determined by densitometry of SDS-PAGE gels. The raw densitometric number obtained of the recombinant B subunit band that was pelleted with F-actin, but with no compound present, represented 0% inhibition. The amount of the raw densitometric number of the amount of recombinant B subunit that pelleted with no actin present, but with compound, represented 100% inhibition. The amount of recombinant B subunit that pelleted with actin and the compound being tested was placed as a percentage assuming a linear response.
In the case of `O=C(C[N+]12CN3CN(CN(C3)C1)C2)c1ccc(Cl)cc1.[I-]` [Binhib 2, 3,5,7-triaza-1-azoniatricyclo[3.3.1.13,7]decane, 1-[2-(4-chlorophenyl)-2-oxoethyl]-iodide], the “B subunit actin interactions in vitro” value is reported as “inhibits”. In the case of `CN1N(C)C12CCC1(C)C(CCC3C1CCC1(C)C3CCC1(C)O)C2` (stereo not shown) [Binhib 3, 1′,2′,10,13,17-pentamethylhexadecahydrospiro[cyclopenta[a]phenanthrene-3,3′-diaziridin]-17-ol], the inhibition at 100 µM is reported as 7%.

Same assay, conditions: 100 uM inhibitor compound; recombinant B subunit 1 μM, F-actin 2 μM; densitometry of SDS-PAGE gels
`COc1ccc(C(=O)C[N+]23CN4CN(CN(C4)C2)C3)cc1` [Binhib 41, 1-(4-methoxyphenyl)-2-(15,3,5,7-tetraazatricyclo[3.3.1.1˜3,7˜]dec-1-yl)ethanone] was tested, and the “% inhibition” value was 4%. `ON=C(C[N+]12CN3CN(CN(C3)C1)C2)c1ccc(I)cc1` [Binhib 10, 1-(4-iodophenyl)-2-(15,3,5,7-tetraazatricyclo[3.3.1.1˜3,7˜]dec-1-yl)ethanone oxime] was tested, and the “% inhibition” value was 3%. In the case of `O=C(C[N+]12CN3CN(CN(C3)C1)C2)c1ccc(Br)cc1` [Binhib 24, 1-(4-bromophenyl)-2-(15,3,5,7-tetraazatricyclo[3.3.1.1˜3,7˜]dec-1-yl)ethanone], the “% inhibition” value is reported as 13%. In the case of `Clc1cc(Cl)c(C[N+]23CN4CN(CN(C4)C2)C3)cc1Cl.[Cl-]` [Binhib 1, {3,5,7-Triaza-1-azoniatricyclo[3.3.1.13,7]decane}{1-[(2,}4,5-trichlorophenyl)methyl]-, chloride], the “% inhibition” value is reported as 5%. For `COC(=O)C1CC23CCCN4CCC5(c6cccc(OC)c6N(C=O)C15CC2)C43` (stereo not shown) [Binhib 35, methyl 1-formyl-17-methoxyaspidofractinine-3-carboxylate], the “% inhibition” value was 4%. “2,4-diamino-5-(4-((2-aminoethyl)amino)-3-(hydroxy(oxido)amino)phenyl)-6-ethylpyrimidine [Binhib 33]” was tested, and the “% inhibition” value was 1%. In the case of `Brc1ccc(C[N+]23CN4CN(CN(C4)C2)C3)cc1.[Br-]` [Binhib 9, 3-(5,7-Triaza-1-azoniatricyclo[3.3.1.13,7]decane) (1-[(4-bromophenyl)methyl])bromide], the “% inhibition” value is reported as 21%. In the case of `Cc1nc2ccccc2cc1C[N+]12CN3CN(CN(C3)C1)C2` [Binhib 30, 1-((2-methyl-3-quinolinyl)methyl)-15,3,5,7-tetraazatricyclo[3.3.1.1˜3,7˜]decane], the “% inhibition” value is reported as 4%. `BrC=C(Br)C[N+]12CN3CN(CN(C3)C1)C2` [Binhib 18, 1-(2,3-dibromo-2-propenyl)-15,3,5,7-tetraazatricyclo[3.3.1.1˜3,7˜]decane] was tested, and the “% inhibition” value was 2%. In the case of “2-((4-methyl-1-piperazinyl)methyl)-15-indeno[1,2,3-de]quinazolin-1-ol [Binhib 15]”, the “% inhibition” value is reported as 0%. For `CC(C)Cc1ccc(C[N+]23CN4CN(CN(C4)C2)C3)cc1` [Binhib 20, 1-(4-isobutylbenzyl)-15,3,5,7-tetraazatricyclo[3.3.1.1˜3,7˜]decane], the “% inhibition” value was 5%. For `O=C(C[N+]12CN3CN(CN(C3)C1)C2)c1ccc2ccccc2c1` [Binhib 36, 1-(2-naphthyl)-2-(15,3,5,7-tetraazatricyclo[3.3.1.1˜3,7˜]dec-1-yl)ethanone], the “% inhibition” value was 0%.

Same assay, conditions: 100 uM inhibitor compound; recombinant B subunit 1 μM, F-actin 2 μM; densitometry of SDS-PAGE gels; read-out: % inhibition
For `CCOC(=O)C(Cc1c[nH]c2ccccc12)NCCN` (stereo not shown) [Binhib 5, ethyl 2-((2-aminoethyl)amino)-3-(1H-indol-3-yl)propanoate], the inhibition at 100 µM was 0%. Work on `O=C(C[N+]12CN3CN(CN(C3)C1)C2)c1ccc(Cl)cc1.[I-]` [Binhib 2, 3,5,7-triaza-1-azoniatricyclo[3.3.1.13,7]decane, 1-[2-(4-chlorophenyl)-2-oxoethyl]-iodide] yielded an inhibition at 100 µM of 65%. `S=C(S)NCCN1CCNCC1` [Binhib 38, 2-(1-piperazinyl)ethylcarbamodithioic acid] was tested, and the inhibition at 100 µM was 3%. In the case of `Cn1c(=O)c2nc(SSc3nc4c(=O)n(C)c(=O)n(C)c4[nH]3)[nH]c2n(C)c1=O` [Binhib 31, 8,8′-disulfanediylbis(1,3-dimethyl-1H-purine-2,6(3H,9H)-dione)], the inhibition at 100 µM is reported as 2%. `COc1cccc(CN2CCN(N)CC2)c1` [Binhib 17, 4-(3-methoxybenzyl)-1-piperazinamine] gave an inhibition at 100 µM of 0%. In the case of `C=C1C23C(CCCC2NC)CCC2(C)C4C(C(C)=O)C(O)CC4(C)CCC123` (stereo not shown) [Binhib 26, 1-(2-hydroxy-3a,12a-dimethyl-7-(methylamino)-6-methylenehexadecahydro-cyclopenta[a]cyclopropa[e]phenanthren-1-yl)ethanone], the inhibition at 100 µM is reported as 0%.
